# Test results: the METLIN SMRT retention time set (Domingo-Almenara et al. 2019)
# Assay: gradient 5% acetonitrile 3 min, to 50% in 2 min, to 85% in 15 min, held 3 min, 100 µL/min
# Details: column: Zorbax Extend-C18 2.1 x 50 mm; eluents: water / acetonitrile, 0.1% formic acid
# Method in brief: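 Over 3 months, pure standards in mixtures of ~100 molecules were run by HPLC coupled to a quadrupole time-of-flight mass spectrometer in positive and negative ionization mode. The column was a Zorbax Extend-C18 (2.1 × 50 mm, 1.8 μm) at 100 μL/min, eluted with water and acetonitrile each holding 0.1% formic acid, with 40 μL dead and 900 μL dwell volumes. Retention time was determined from adduct peaks chosen by software and checked manually.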
row,Compound,RP-LC retention time
1,Cc1ccccc1NC(=O)C1CC(=O)N(c2n[nH]c3cccc(F)c23)C1 (centres undefined),733 s
2,COCCNC(=O)c1nnn(-c2cccc(Cl)c2)c1-c1ccncc1,690 s
3,COC(=O)c1ccc(NC(=O)Cn2nc3nc(N4CCCCC4C)ccn3c2=O)cc1 (centres undefined),778 s
4,CC1CCCN(CCCNC(=O)CCC(=O)N2CCc3c(c(C(=O)N4CCCC4)nn3C)C2)C1 (centres undefined),579 s
5,CN(Cc1ccoc1)C(=O)Nc1ccc(F)cc1,797 s
6,CCCN(CC1CCOC1)S(=O)(=O)c1cc(F)ccc1OC (centres undefined),868 s
7,O=C(Nc1ccc(C(F)(F)F)cc1)NC1CCN(c2ccccc2)C1=O (centres undefined),912 s
8,CCOC(=O)c1cnc(N2CCN(c3ccccc3F)CC2)[nH]c1=O,908 s
9,CCn1cc(CCNC(=O)C2CCCC2)c2cccnc21,654 s
10,CCC(CC)C(=O)Nc1nc(-c2ccc3c(c2)N(CC)C(=O)CO3)cs1,980 s
11,CC(C)N1CCc2c(sc(NC(=O)COc3ccc(Cl)cc3Cl)c2C(N)=O)C1,598 s
12,Cc1ccc(NS(=O)(=O)c2ccc3c(c2)C(=O)N(C)c2ncccc2O3)cc1F,957 s
13,C=CCNC(=O)C1CCN(S(=O)(=O)c2cc(Cl)ccc2OCC)CC1,767 s
14,COc1c(C(=O)NCc2ccc3c(c2)OCO3)sc2cc(Cl)ccc12,1070 s
15,CC(C)Cc1ccc(S(=O)(=O)N2CCC(c3nc4cccnc4n3C)C2)cc1 (centres undefined),929 s
16,COc1ccccc1/C=C/c1nc(-c2cccc(-c3ccn[nH]3)c2)no1,976 s
17,Cc1cccc(S(=O)(=O)Nc2ccc3c(c2)CCC(=O)N3)c1,689 s
18,CCc1nncn1C1CCN(S(=O)(=O)c2ccc(OC)c(OC)c2)CC1,650 s
19,O=C(Cn1nc2c3ccccc3ncn2c1=O)Nc1ccc2c(c1)OCO2,665 s
20,CCOC(=O)c1c(C)n(C)c2cc(Br)c(OC)cc12,1090 s
21,Cc1onc(-c2ccccc2Cl)c1C(=O)N1CC2CC1C(=O)O2 (centres undefined),693 s
22,Cc1noc(C)c1-c1ccc(S(=O)(=O)N2CCc3ccccc3C2)cc1,1050 s
23,Nc1c(C(=O)Nc2cc(F)ccc2F)nnn1-c1ccccc1,989 s

# Further lines, results first:
row,RP-LC retention time,Compound
1,633 s,Cc1nn(CC(=O)NCc2ccccn2)c(=O)c2nc(-c3ccccc3)sc12
2,897 s,CCCn1ccc2sc(C)c(C(=O)NC3CCCCCC3)c2c1=O
3,1090 s,O=c1c2sccc2n(Cc2nc(-c3ccc(F)c(Cl)c3)no2)c(=O)n1-c1ccc(F)cc1
4,626 s,CC(C)NC(=O)N1CCC(c2noc(-c3ccncc3)n2)C1 (centres undefined)
5,808 s,CC(C)=CC1C(C(=O)O)C1(C)C (centres undefined)
6,830 s,O=C(NCC1CCCCC1)C1CCN(C(=O)c2ncn3c2COC(c2ccc(Cl)cc2)C3)CC1 (centres undefined)
7,906 s,CC(C)N1C(=O)c2cccnc2Sc2cc(NC(=O)Cc3ccccc3Cl)ccc21
8,646 s,O=C1NCCCCCCN(Cc2ccc(F)cc2F)[C@H]2CCC[C@@H]12
9,723 s,Cc1cc(NCC2CCCO2)n2nc(-c3ccc(Cl)cc3)c(C)c2n1 (centres undefined)
10,715 s,c1ccc(-c2nnc(-c3ccncc3)o2)cc1
11,648 s,COc1ccc(N2CCN(c3ncc4c(n3)CCN(Cc3cccc(F)c3)C4)CC2)cc1
